Earlier results, collected in publication PMC5643527, “In vivo imaging of lung inflammation with neutrophil-specific ^68Ga nano-radiotracer” (Scientific Reports, 2017).

Tests used:
[1] = target: formyl peptide receptor 1 (FPR-1); conditions: antagonist of FPR-1; read-out: binding affinity (Kd)
Method: A particularly interesting compound is the peptide N-cinnamoyl-F-(D)L-F-(D)L-F (cFLFLF), an antagonist of formyl peptide receptor 1 (FPR-1). The very high binding affinity of cFLFLF (Kd = 2 nM) is the main reason for its use in neutrophil-specific probes for PET and optical fluorescence[7],[8],[10]. However, the high hydrophobicity of cFLFLF produces very poor target-to-background ratios. This serious limitation is the reason why to date the amount of radiotracer reaching the inflammation site is below 1% (expressed as the % of injected dose per mass of the organ)[7],[10]. || Inflammation is a central feature of many clinical conditions and can be broadly classified as acute or chronic. Acute inflammation typically occurs over a timescale of minutes to hours, whereas chronic inflammation can develop over several days to months. The predominant cell type in acute inflammation is the neutrophil, whereas chronic inflammation features a greater variety of cell types.

[2] = target: formyl peptide receptor 1 (Homo sapiens) (UniProt P21462)
UniProt P21462, sequence (P21462 whole entry): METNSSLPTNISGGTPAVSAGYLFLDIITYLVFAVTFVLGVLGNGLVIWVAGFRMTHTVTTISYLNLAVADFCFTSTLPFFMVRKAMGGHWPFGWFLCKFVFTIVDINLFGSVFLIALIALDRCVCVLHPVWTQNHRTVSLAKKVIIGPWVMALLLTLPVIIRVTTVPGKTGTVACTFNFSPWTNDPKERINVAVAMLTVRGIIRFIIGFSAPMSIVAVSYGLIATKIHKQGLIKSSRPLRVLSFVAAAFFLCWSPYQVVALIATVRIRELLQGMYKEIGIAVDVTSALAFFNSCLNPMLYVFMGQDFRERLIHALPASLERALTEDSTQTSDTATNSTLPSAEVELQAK

| Substance | Kd [1] [nM] | Kd [2] [nM] |
| --- | --- | --- |
| N-cinnamoyl-F-(D)L-F-(D)L-F [cFLFLF] | 2 |  |
| cFLFLF (N-cinnamoyl-F-(D)L-F-(D)L-F) |  | 2 |
